Values after ≈ are worked out from the molar mass of the structure shown.
Tests used:
[1] = Caco-2 cell permeability; format: in vitro ADME; conditions: human, pH 7.4, Caco-2 monolayer, apical to basolateral
Procedure: (§1) The next step was an in vitro ADMET profiling of the best seven compounds so far: 9, 11, 14, 19, 20, 21, and 27. The compounds were tested for their kinetic solubility (1% DMSO in PBS, pH 7.4), lipophilicity (chromatographic Log D7.4 value), cellular permeability (using Caco-2 cells), and metabolic stability (using mouse and human liver S9 fractions) (see Table 3).
MTT Assay: Viability of HEK293 cells ~48 hours after treatment […]
Fig S4: MTT assay for compounds 11, 14, 19, 20 and 21 using HEK293 cells. Values are means of […]
Permeability of the compounds was assessed using Caco2 monolayers grown on Transwell® (3460 Costar, Corning). In brief, cells were seeded 60.000 cells/well in 12-well Transwell plates in DMEM medium supplemented with 10% FCS and 1% NEAA. Cells were grown for 7 to 9 days with medium replacement every other day until they reached a tight monolayer. Tightness was defined as transepithelial resistance (TEER) values >300 Ω/cm² (measured using an EVOM Volt-Ohmmeter, World Precision Instruments). At the day of permeability as say, the compound stock solutions in DMSO were diluted to 10µM in Krebs -Ringer-buffer (KRB, pH 7.4). Cells treated with KRB only served as control. Monolayer was washed two times with prewarmed KRB and incubated with 500 µl sample on the apical compartment. Samples from the basolateral side were drawn at t = 0, 15, 30, 60, 120, 180 and 300 min and replaced with fresh buffer. The plates were incubated for 5 h in a cell culture incubator with lateral shaking (200 rpm). TEER values were measured again at the end of the permeability test. Compound concentration was determined with HPLC-ESI-MS/MS in SRM mode and calculated for the cumulative transport. Values are means of three replicates.

[2] = target: T1, oligomerization-deficient mutant of a LANA C-terminal protein fragment (aa 1008–1146) (Human herpesvirus 8 (Kaposi's sarcoma-associated herpesvirus), UniProt Q76SB0); experiment: Microscale thermophoresis (MST) binding assay; design: species or system Kaposi's sarcoma-associated herpesvirus (KSHV); conditions: read-out: KD value (MST); LANA aa 1008–1146 mutant; means of at least three replicates
T1 sequence (Q76SB0 1008-1146): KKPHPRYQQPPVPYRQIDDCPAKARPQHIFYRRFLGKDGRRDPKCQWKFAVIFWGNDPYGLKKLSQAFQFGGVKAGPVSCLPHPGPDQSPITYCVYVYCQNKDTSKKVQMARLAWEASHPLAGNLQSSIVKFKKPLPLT
Source text: (§2) In these assays, an oligomerization-deficient mutant of a LANA C-terminal protein fragment (aa 1008–1146) and an oligonucleotide representing LANA-binding site (LBS) 1 were used, which are convenient to use and handle for the described biophysical methods, while maintaining the essential DNA-binding interface.[25]
Equation y = A2 + (A1-A2)/(1 + (x/x0)^p)
1.3 Microscale Thermophoresis (MST) Assay
Microscale Thermophoresis Assay was done as mentioned in a previous publication. 2

[3] = target: LANA–DNA interaction (oligomerization-deficient LANA DBD aa 1008–1146 mutant / LBS1) (Human herpesvirus 8 (Kaposi's sarcoma-associated herpesvirus), UniProt Q76SB0); experiment: Electrophoretic mobility shift assay (EMSA), LANA DBD mutant with LBS1 oligonucleotide; format: biochemical, Kaposi's sarcoma-associated herpesvirus (KSHV); conditions: compound at 250 μM; LBS1 oligonucleotide; LANA aa 1008–1146 mutant
Procedure: as §2
Equation y = A2 + (A1-A2)/(1 + (x/x0)^p) […]
1.4 Electrophoretic Mobility Shift Assay (EMSA)
The EMSA was carried out with slight modific ations as described previously 2 based on the assay in Hellert et al. (2013). 3 His-tagged oligomerization-deficient LANA DBD (aa1008-1146) mutant protein or LANA DBD (aa934-1162) wild type protein (200 nM final) was incubated with a 5´-Dy682-labeled double stranded DNA probe (IBA Lifesciences) (20 nM final) for 30 minutes at RT in the dark. The reaction buffer consisted of 30 mM Tris HCl pH 7.5, 50 mM KCl, 10 mM MgCl2, 1 mM DTT, 1 mM EDTA, 10% glycerol, 0.25% Tween20, 0.5 mg/mL BSA and 0.05 mg/mL poly(dI-dC). […]
dark. 10 µL of the reaction was run on a pre -run native 5% acrylamide gel for 45 minutes at 100V with tris-borate-EDTA buffer. Images of the gels were acquired and analysed with the Odyssey (Licor) using the Image Studio software.
Fig S2: Gels of EMSA experiments at 250 μM for all compounds (A) and dose-dependent curves for compound 20 using LANA DBD mutant (B) and LANA wildtype (C) as well as LBS1. Values are means […]
Gleichung y = A2 + (A1-A2)/(1 + (x/x0)^p) […]

[4] = Metabolic stability in human liver S9 fraction; format: in vitro ADME; conditions: human liver S9, 1 μM compound; for microsomal CLint at 1 µM: read-out: MetStab Human Liver S9 Clint; for half-life at 1 µM: read-out: MetStab Human Liver S9 t1/2
Procedure: as §1, with “3). […]” for “3).”
(§3) 1.7 Metabolic Stability in Liver S9 Fractions
(§4) For the evaluation of combined phase I and phase II metabolic stability, the compound (1 μM) was incubated with 1 mg/mL pooled mouse liver S9 fraction (Xenotech, Kansas City, USA) or human liver S9 fraction (Corning, USA), 2 mM NADPH, 1 mM UDPGA, 10 mM MgCl 2, 5 mM GSH and 0.1 mM PAPS at 37 °C for 240 min. The metabolic stability of testosterone, verapamil and ketoconazole were determined in parallel to confirm the enzymatic activity of mouse S9 fractions, for human S9 testosterone, diclofenac and propranolol were used. The incubation was stopped after defined time points by precipitation of aliquots of S9 enzymes with 2 volumes of cold acetonitrile containing internal standard (150 nM diphenhydramine). Samples were stored on ice until the end of the incubation and precipitated protein was removed by centrifugation (15 min, 4 °C, 4,000 g). Concentration of the remaining test compound at the different time points was analyzed by HPLC-MS/MS (TSQ Quantum Access MAX, Thermo Fisher, Dreieich, Germany) and used to determine half -life (t1/2). Values are means of three

[5] = Chromatographic LogD7.4; format: physicochemical; conditions: reversed-phase HPLC, NUCLEODUR C18 Pyramid column; pH 7.4, HPLC-MS based; read-out: Chrom. LogD7.4
Procedure: as §1, with “3). […]” for “3).”
LogD7.4 was analyzed using an HPLC−MS based method. The retention time of 12 compounds with known LogD7.4 was determined and plotted toward their LogD7.4. Linear regression was used to determine the LogD7.4 of unknown compounds. Analysis was performed using a Dionex Ultimate 3000 HPLC system coupled to a TSQ Quantum Access MAX (Thermo Fisher, Dreieich, Germany) with the following conditions: EC150/2 NUCLEODUR C18 Pyramid column, 5 μM (Macherey Nagel, Düren, Germany); eluent A: 50 mM NH4OAc pH 7.4, eluent B: acetonitrile, and flow: 0.6 mL/min. The gradient was set to 0−100% B from 0 to 2.5 min, […]
are means of two replicates. […]

[6] = Kinetic solubility; format: physicochemical; conditions: PBS with 1% DMSO; 1% DMSO in PBS, pH 7.4
Procedure: as §1
The desired compounds were sequentially diluted in DMSO in a 96-well plate. 1.5 µL of each well were transferred into another 96-well plate and mixed with 148.5 µL of PBS. Plates were shaken for 5 min at 600 rpm at room temperature (r.t.), and the absorbance at 620 nm was measured. Absorbance values were normalized by blank subtraction and plotted using GraphPad Prism 8.4.2 (GraphPad Software, San Diego, CA, USA). Solubility (S) was determined based on the First X value of AUC function using a threshold of 0.005. […]

[7] = Metabolic stability in mouse liver S9 fraction; format: in vitro ADME; conditions: pooled liver S9 fraction, mouse liver S9, 1 μM compound; for microsomal CLint at 1 µM: read-out: MetStab Mouse Liver S9 Clint; for half-life at 1 µM: read-out: MetStab Mouse Liver S9 t1/2
Procedure: as §1, with “3). […]” for “3).”
as §3, §4

[8] = target: LANA; design: method as in PMID 30888817; conditions: cited from earlier work

SMILES | Papp A→B at 5 h, 10 µM [1] [×10⁻⁶ cm/s] | Kd [2] [µM] | Inhibition (EMSA, LBS1) @250 μM [3] [%] | microsomal CLint at 1 µM [4] [µL/min/mg] | half-life at 1 µM [4] [h] | chromatographic logD [5] | solubility kinetic at 5 min [6] [µM] | microsomal CLint at 1 µM [7] [µL/min/mg] | half-life at 1 µM [7] [h] | Kd [8] [µM]
COc1ncc(C)cc1-c1cc(C)c(-n2cc(-c3ccc(C(=O)O)cc3)nn2)cn1 [Compound 11] | 9.6 ± 1.4 | 18.8 ± 2.1 | 96 | < 5.8 | > 2 | 0.42 | > 200 | < 5.8 | > 2 | 
Cc1cc(-c2ccccc2Cl)ncc1-n1cc(-c2ccc(C(=O)O)cc2)nn1 [Compound 14] | 14.2 ± 1.8 | 4.2 ± 0.6 | 92 | < 5.8 | > 2 | 0.67 | > 200 | < 5.8 | > 2 | 
COc1ccc(-c2cc(C)c(-n3cc(-c4ccc(C(=O)O)cc4)nn3)cn2)cc1 [Compound 19] | 16.5 ± 4.7 | 5.4 ± 1.8 | 69 | < 5.8 | > 2 | 0.46 | > 200 | < 5.8 | > 2 | 
Cc1cc(-c2ccccc2O)ncc1-n1cc(-c2ccc(C(=O)O)cc2)nn1 [Compound 21] | 8.8 ± 1.1 | 18.8 ± 2.2 | 94 | < 5.8 | > 2 | 0.62 | 137 ± 20 (≈ 51 µg/mL) | < 5.8 | > 2 | 
Cc1cc(-c2ccc(C(=O)O)cc2)ncc1-n1cc(-c2ccc(C(=O)O)cc2)nn1 [Compound 27] | 0.5 ± 0.2 | 11.4 ± 3.6 | 98 | < 5.8 | > 2 | -1.92 | > 200 | < 5.8 | > 2 | 
O=C(O)c1ccc(-c2cn(-c3cccnc3)nn2)cc1 [hit I] |  |  |  |  |  |  |  |  |  | 23

From paper PMC10424179, “Disrupting Kaposi’s Sarcoma-Associated Herpesvirus (KSHV) Latent Replication with a Small Molecule Inhibitor” (Journal of Medicinal Chemistry, 2023)
